What follows are molecules tested against T1, human mGluR7 (Homo sapiens, UniProt Q14831) (assay: mGluR7 assay: CRE-directed luciferase reporter gene assay, reduction of forskolin stimulated cAMP production). Details: stable CHO cell line expressing the CRE-luc reporter and human mGluR7 genes; decrease of forskolin stimulated luminescence; 10-point concentration-response, duplicate wells.
T1 construct: expressed in transfected cells
T1 sequence (Q14831 35-915): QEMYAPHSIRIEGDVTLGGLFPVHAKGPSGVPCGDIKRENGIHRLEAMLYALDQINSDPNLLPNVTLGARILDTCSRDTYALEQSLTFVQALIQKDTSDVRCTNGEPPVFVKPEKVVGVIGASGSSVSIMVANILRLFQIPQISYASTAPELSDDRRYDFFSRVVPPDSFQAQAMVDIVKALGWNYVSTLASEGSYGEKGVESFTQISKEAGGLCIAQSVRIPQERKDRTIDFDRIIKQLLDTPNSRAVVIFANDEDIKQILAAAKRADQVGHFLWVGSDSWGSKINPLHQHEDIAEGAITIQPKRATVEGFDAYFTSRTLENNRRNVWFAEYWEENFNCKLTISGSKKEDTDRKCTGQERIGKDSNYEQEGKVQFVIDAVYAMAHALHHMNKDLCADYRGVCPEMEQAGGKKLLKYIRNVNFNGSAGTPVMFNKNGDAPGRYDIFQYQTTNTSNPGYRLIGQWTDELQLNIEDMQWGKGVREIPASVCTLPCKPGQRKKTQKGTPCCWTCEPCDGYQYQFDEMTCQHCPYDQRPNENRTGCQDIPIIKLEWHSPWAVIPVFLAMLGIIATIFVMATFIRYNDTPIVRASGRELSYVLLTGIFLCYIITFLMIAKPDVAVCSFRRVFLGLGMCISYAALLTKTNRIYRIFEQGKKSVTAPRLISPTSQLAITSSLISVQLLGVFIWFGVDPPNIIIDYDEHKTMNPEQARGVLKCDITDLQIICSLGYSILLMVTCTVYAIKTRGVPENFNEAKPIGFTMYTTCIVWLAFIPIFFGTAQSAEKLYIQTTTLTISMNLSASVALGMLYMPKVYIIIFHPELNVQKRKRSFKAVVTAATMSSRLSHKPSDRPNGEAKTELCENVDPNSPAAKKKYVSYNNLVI
Type: cell-based
Method: The ability of the test compounds to activate mGluR7 was determined by their ability to reduce forskolin stimulated cAMP production. Compounds were assessed in a CRE-directed luciferase reporter gene assay, using a stable CHO cell line expressing the CRE-luc reporter and human mGluR7 genes. In this cell line, production of cAMP stimulated the transcription of the luciferase gene and luciferase activity was then measured in a luminescent enzyme assay (Steady Glo assay; Promega E2550). Activation of mGluR7 decreased the forskolin stimulated luminescence signal.
The day prior to the assay, compounds were serially diluted in DMSO (100× final assay concentration (FAC)), in 384-well plates which were then stored in the dark at room temperature (RT) until use. Cells were seeded at 12.5 k/well in white, clear bottom 384-well plates (Corning 3707) and left for one hour at RT followed by an overnight incubation (37° C.). The following day, the DMSO compound plate was diluted 1:20 (5× FAC) in Opti-MEM I (Life Technologies 11058021). The growth media was removed from the cell plate and replaced with 15 μl Opti-MEM I, followed by a 5 μl addition from the 5× compound plate and a fifteen minute incubation (37° C.). Forskolin (Sigma F3917) was then added to the wells (5 μl of 2.5 μM) and the plate was incubated for five hours (37° C.). During this incubation, the Steady Glo Substrate reagent was warmed to 37° C. Aliquots (11 ml; stored at −20° C.) of this reagent were prepared by dissolving the contents of 1 vial of lyophilised substrate in 100 ml Steady-Glo buffer. A 25 μl addition of the substrate was made to all wells and the plate was incubated for thirty minutes at RT, on a plate shaker (300 rpm; in the dark). Luminescence was then measured using the EnVision Multilabel Reader (Perkin Elmer).
Compound activity was examined using a 10-point, half log concentration-response range and each concentration was tested in duplicate wells. Luminescence values were normalised to ‘maximum’ (forskolin alone) and ‘minimum’ (forskolin in the presence of tool mGluR7 agonist) controls.
`CCO[C@@H]1c2ccccc2C[C@H]1NC(=O)[C@@H](NCc1csc(C)n1)c1ccc(F)cc1` (mixture of isomers) [Example 60, (2S)—N-(trans)-(1-ethoxy-2,3-dihydro-1H-inden-2-yl)-2-(4-fluorophenyl)-2-{[(2-methyl-1,3-thiazol-4-yl)methyl]amino}acetamide] gave an EC50 of 3 nM.
`CC(C)(C)OC(=O)N[C@H]1c2ccccc2C[C@@H]1NC(=O)C(c1ccc(F)cc1F)n1cccn1` (mixture of isomers) [Example 81, tert-butyl N-[(1S,2S)-2-[2-(2,4-difluorophenyl)-2-(1H-pyrazol-1-yl)acetamido]-2,3-dihydro-1H-inden-1-yl]carbamate] showed an EC50 of 83 nM.
`Cc1nccn1C(C(=O)N[C@H]1Cc2ccccc2[C@@H]1NC(=O)OC(C)(C)C)c1ccc(F)cc1F` (mixture of isomers) [Example 82, tert-butyl N-[(1S,2S)-2-[2-(2,4-difluorophenyl)-2-(2-methyl-1H-imidazol-1-yl)acetamido]-2,3-dihydro-1H-inden-1-yl]carbamate] gave an EC50 of 772 nM.
Molecule `CC(C)(C)OC(=O)N[C@H]1c2ccccc2C[C@@H]1NC(=O)C(c1ccc(F)cc1F)N1CC(F)C1` (mixture of isomers) [Example 93, tert-butyl N-[(1S,2S)-2-[2-(2,4-difluorophenyl)-2-(3-fluoroazetidin-1-yl)acetamido]-2,3-dihydro-1H-inden-1-yl]carbamate] has an EC50 of 23 nM.
Work on `C[C@H](C(=O)NC1Cc2ccccc2C1O)c1ccccc1` (mixture of isomers) [Example 2, (2S)—N-((trans)-1-hydroxy-2,3-dihydro-1H-inden-2-yl)-2-phenylpropanamide] yielded an EC50 of 107 nM.
In the case of `COC1c2ccccc2CC1NC(=O)[C@@H](C)c1ccccc1` (mixture of isomers) [Example 7, (2S)—N-((trans)-1-methoxy-2,3-dihydro-1H-inden-2-yl)-2-phenylpropanamide], the EC50 is reported as 29 nM.
In the case of `COC1c2ccccc2CC1NC(=O)[C@@H](C)c1ccc(F)cc1F` (mixture of isomers) [Example 25, (2S)-2-(2,4-difluorophenyl)-N-((trans)-1-methoxy-2,3-dihydro-1H-inden-2-yl)propanamide], the EC50 is reported as 24 nM.
With `CCOC1c2ccccc2CC1NC(=O)[C@@H](C)c1ccc(F)cc1F` (mixture of isomers) [Example 28, (2S)-2-(2,4-difluorophenyl)-N-((trans)-1-ethoxy-2,3-dihydro-1H-inden-2-yl)propanamide] the EC50 was 28 nM.
Work on `COC1c2ccccc2CC1NC(=O)[C@@H](C)c1ccc(F)cc1` (mixture of isomers) [Example 36, (2S)-2-(4-fluorophenyl)-N-((trans)-1-methoxy-2,3-dihydro-1H-inden-2-yl)propanamide] yielded an EC50 of 36 nM.
`CC[C@H](C(=O)NC1Cc2ccccc2C1OC)c1ccc(F)cc1` (mixture of isomers) [Example 44, (2S)-2-(4-fluorophenyl)-N-((trans)-1-methoxy-2,3-dihydro-1H-inden-2-yl)butanamide] gave an EC50 of 9 nM.
Work on `COC1c2ccccc2CC1NC(=O)[C@@H](N)c1ccc(F)cc1` (mixture of isomers) [Example 54, (2S)-2-amino-2-(4-fluorophenyl)-N-(trans)-(1-methoxy-2,3-dihydro-1H-inden-2-yl)acetamide] yielded an EC50 of 66 nM.
With `C[C@H](C(=O)NC1Cc2ccccc2C1N1CCCC1)c1ccccc1` (mixture of isomers) [Example 78, (2S)-2-phenyl-N-(trans)-[1-(pyrrolidin-1-yl)-2,3-dihydro-1H-inden-2-yl]propanamide] the EC50 was 322 nM.
For `CS(=O)(=O)[C@@H]1c2ccccc2C[C@H]1NC(=O)C(OCC1CC1)c1ccccc1` (relative stereo) [Example 135, 2-(cyclopropylmethoxy)-N-(trans)-(1-methanesulfonyl-2,3-dihydro-1H-inden-2-yl)-2-phenylacetamide], the EC50 was 4 nM.
For `C[C@H](C(=O)NC1Cc2ccccc2C1O)c1ccccc1` (single isomer, unassigned) [Example 3], the EC50 was 349 nM.
Work on `C[C@H](C(=O)NC1Cc2ccccc2C1O)c1ccccc1` (single isomer, unassigned) [Example 4] yielded an EC50 of 121 nM.
`C[C@H](C(=O)NC1Cc2ccccc2C1O)c1ccccc1` (single isomer, unassigned) [Example 5] was tested, and the EC50 was 654 nM.
For `C[C@H](C(=O)NC1Cc2ccccc2C1O)c1ccccc1` (single isomer, unassigned) [Example 6], the EC50 was 1560 nM.
In the case of `COC1c2ccccc2CC1NC(=O)[C@@H](C)c1ccccc1` (single isomer, unassigned) [Example 8], the EC50 is reported as 57 nM.
`COC1c2ccccc2CC1NC(=O)[C@@H](C)c1ccccc1` (single isomer, unassigned) [Example 9] gave an EC50 of 37 nM.
In the case of `CCC(C(=O)N[C@H]1Cc2ccccc2[C@@H]1N)c1ccc(F)cc1F` (single isomer, unassigned) [Example 15], the EC50 is reported as 25 nM.
In the case of `CCC(C(=O)N[C@H]1Cc2ccccc2[C@@H]1N)c1ccc(F)cc1F` (single isomer, unassigned) [Example 16], the EC50 is reported as 747 nM.
`COC1c2ccccc2CC1NC(=O)[C@@H](C)c1ccc(F)cc1F` (single isomer, unassigned) [Example 26] was tested, and the EC50 was 64 nM.
With `COC1c2ccccc2CC1NC(=O)[C@@H](C)c1ccc(F)cc1F` (single isomer, unassigned) [Example 27] the EC50 was 21 nM.
Work on `CCOC1c2ccccc2CC1NC(=O)C(C)c1ccc(F)cc1F` (single isomer, unassigned) [Example 29] yielded an EC50 of 10 nM.
For `CCOC1c2ccccc2CC1NC(=O)C(C)c1ccc(F)cc1F` (single isomer, unassigned) [Example 30], the EC50 was 22 nM.
`CCOC1c2ccccc2CC1NC(=O)[C@@H](C)c1ccc(F)cc1` (single isomer, unassigned) [Example 32] showed an EC50 of 14 nM.
For `CCOC1c2ccccc2CC1NC(=O)[C@@H](C)c1ccc(F)cc1` (single isomer, unassigned) [Example 33], the EC50 was 39 nM.
`COC1c2ccccc2CC1NC(=O)[C@@H](C)c1ccc(F)cc1` (single isomer, unassigned) [Example 37] gave an EC50 of 38 nM.
`COC1c2ccccc2CC1NC(=O)[C@@H](C)c1ccc(F)cc1` (single isomer, unassigned) [Example 38] was tested, and the EC50 was 16 nM.
`CC[C@H](C(=O)NC1Cc2ccccc2C1OC)c1ccc(F)cc1` (single isomer, unassigned) [Example 45] gave an EC50 of 17 nM.
`CC[C@H](C(=O)NC1Cc2ccccc2C1OC)c1ccc(F)cc1` (single isomer, unassigned) [Example 46] showed an EC50 of 11 nM.
`CC(C)(C)OC(=O)N[C@H]1c2ccccc2C[C@@H]1NC(=O)C(c1ccc(F)cc1F)n1ccccc1=O` (single isomer, unassigned) [Example 48] showed an EC50 of 336 nM.
Work on `CC(C)(C)OC(=O)N[C@H]1c2ccccc2C[C@@H]1NC(=O)C(c1ccc(F)cc1F)n1ccccc1=O` (single isomer, unassigned) [Example 49] yielded an EC50 of 133 nM.
In the case of `N[C@H]1c2ccccc2C[C@@H]1NC(=O)C(c1ccc(F)cc1F)n1ccccc1=O` (single isomer, unassigned) [Example 50], the EC50 is reported as 3920 nM.
`N[C@H]1c2ccccc2C[C@@H]1NC(=O)C(c1ccc(F)cc1F)n1ccccc1=O` (single isomer, unassigned) [Example 51] gave an EC50 of 565 nM.
With `COC1c2ccccc2CC1NC(=O)[C@@H](NCC1CC1)c1ccc(F)cc1` (single isomer, unassigned) [Example 55] the EC50 was 1 nM.
`COC1c2ccccc2CC1NC(=O)[C@@H](NCC1CC1)c1ccc(F)cc1` (single isomer, unassigned) [Example 56] was tested, and the EC50 was 1 nM.
For `C[C@H](C(=O)NC1Cc2ccccc2C1O)c1ccc(F)cc1` (single isomer, unassigned) [Example 62], the EC50 was 704 nM.
`C[C@H](C(=O)NC1Cc2ccccc2C1O)c1ccc(F)cc1` (single isomer, unassigned) [Example 63] gave an EC50 of 767 nM.
`C[C@H](C(=O)NC1Cc2ccccc2C1N1CCCC1)c1ccc(F)cc1` (single isomer, unassigned) [Example 67] gave an EC50 of 16 nM.
With `C[C@H](C(=O)NC1Cc2ccccc2C1N1CCCC1)c1ccc(F)cc1` (single isomer, unassigned) [Example 68] the EC50 was 28 nM.
`CC(C(=O)N[C@H]1Cc2ccccc2[C@@H]1N)c1ccc(Cl)cc1` (single isomer, unassigned) [Example 69] was tested, and the EC50 was 47 nM.
`CC(C(=O)N[C@H]1Cc2ccccc2[C@@H]1N)c1ccc(Cl)cc1` (single isomer, unassigned) [Example 70] was tested, and the EC50 was 956 nM.
`C[C@H](C(=O)NC1Cc2ccccc2C1N1CCOCC1)c1ccc(F)cc1` (single isomer, unassigned) [Example 73] showed an EC50 of 45 nM.
With `CC(F)(C(=O)N[C@H]1Cc2ccccc2[C@@H]1N)c1ccc(F)cc1` (single isomer, unassigned) [Example 76] the EC50 was 288 nM.
`CC(F)(C(=O)N[C@H]1Cc2ccccc2[C@@H]1N)c1ccc(F)cc1` (single isomer, unassigned) [Example 77] gave an EC50 of 2630 nM.
Molecule `C[C@H](C(=O)NC1Cc2ccccc2C1NCC(F)F)c1ccc(F)cc1` (single isomer, unassigned) [Example 84] has an EC50 of 8 nM.

From patent publication US20190031599A1, “INDANE DERIVATIVES AS MGLUR7 MODULATORS” (Takeda Pharmaceutical Company Limited, priority 2016, published 2019)
